Measurements published in PMC5056396, “Hexokinase I N-terminal based peptide prevents the VDAC1-SOD1 G93A interaction and re-establishes ALS cell viability” (Scientific Reports, 2016).

Legend:
[1] = test system: human VDAC1 reconstituted into PLB; assay: VDAC1 channel conductance in planar lipid bilayer (PLB); type: biochemical; conditions: for effect on single channel VDAC1 conductance: +25 mV, 0.2 μM SOD1 proteins or 15 μM peptide; for effect on voltage-dependence of VDAC1, triangular voltage ramps: symmetric 1 M KCl, ramps 0 to ±50 mV
Description: Purified VDAC1 was reconstituted into a planar phospholipid bilayer (PLB) and its channel conductance was monitored before and after addition of SOD1 proteins, on cis or trans side of the membrane. […] Moreover, the effect of SOD1 proteins on the voltage-dependence of VDAC1 was monitored by triangular voltage ramps from 0 to ±50 mV. […] The current linearly follows the voltage applied up to about ±25 mV, where VDAC1 decreases its channel conductance through step-like transitions, remaining in low-conducting states.
Under standard experimental condition (1 M KCl and an applied potential of +25 mV) the VDAC1 channel was mainly in low-conducting closed states. […] The effect of NHK1 on the channel conductance is even more evident by plotting the amplitude values obtained in the current traces as a function of the number of events. While for VDAC1 alone the amplitude values appear as a main peak corresponding to the closed states (Fig. 4B), the presence of NHK1 caused a different distribution of events: an additional, different peak corresponding to the open state was visible, together with the closed states peak (Fig. 4C). […] The effect of NHK1 on the voltage-dependence of VDAC1 was monitored by triangular voltage ramps. […] In this experiment, indeed, VDAC1 completely loose, very precociously (already at ±15 mV applied), its ability to linearly respond to the applied voltage: a continuous switch from open to closed states was observed, especially at positive potentials. […] Upon NHK1 incubation, VDAC1 current transitions at positive voltages are very noisy and pass through different sub-conductance states (Fig. 4F).
Purified VDAC1 was reconstituted into a Planar Lipid Bilayer (PLB) apparatus (Warner Instruments, Hamden, CT, USA), previously described. Bilayers were prepared using asolectin (Sigma) dissolved in decane (Sigma) containing 1% chloroform (Sigma) across a 200 μm hole in a derlin cuvette (Warner Instruments). Experiments were performed in 1 M KCl, 10 mM Hepes, pH 7.0[40][46]. Control experiments using empty membrane and/or detergents were performed to avoid activity in any of the above solutions. Data were acquired using a Bilayer Clamp amplifier (Warner Instruments) at 100 μs/point, filtered at 200 Hz and analyzed offline using Clampfit 10.4 program set (Axon Instruments, Union City, CA, USA). Single channel analysis of VDAC1 was performed in presence or not of 0.2 μM of SOD1 WT or G93A, 15 μM NHK1 or ScNHK1 peptide.

NSC34-SOD1G93A cells = assay: Mitochondrial membrane potential (ΔΨm) by flow cytometry; type: cell-based, mouse; conditions: TMRM
Protocol: To evaluate the NHK1 influence on mitochondrial functionality, mitochondrial membrane potential variation (ΔΨm) was assayed in the presence of NHK1 peptide or HK1. ΔΨm is related to the ATP production by oxidative phosphorylation; therefore, it is considered an indication of good mitochondrial and cellular health. Using mitochondria-targeted fluorescent probes, we estimated in flow cytometry the rate of mitochondrial depolarization. NSC34-SOD1G93A cells shown a high level of depolarized mitochondria compared to NSC34-SOD1WT. […] Similarly to NHK1 peptide, the expression of the whole HK1 reduced the depolarized mitochondria of about 15% (Fig. 7C).
ΔΨm was measured using tetramethyl-rhodamine methyl ester (TMRM) or Rhodamine 123 (RH123) (Molecular Probes) according to the excitation/emission wavelength of the transfection reporter or of the transfected fluorescent protein used. Both probes accumulates in active mitochondria due to their positive charge, whereby the reduction of ΔΨm leads to the release of fluorescent probes. Transfected NSC34-SOD1WT and NSC34-SOD1G93A cells were washed with PBS and incubated for 30 min at 37 °C with Krebs Ringer Buffered Saline supplemented with either 200 nM TMRM or 0.1 μg/mL RH123 and 20 μM Verapamil (as a multi drug-resistant pump inhibitor) (Sigma). Cells were then harvested and immediately analyzed by flow cytometry. Cells were excited by an air-cooled argon 488 nm laser, reading the GFP fluorescence of HK1-GFP or RH123 fluorescence in FL1 log mode; TMRM and mtDsRED used as transfection reporter of NHK1 peptide were read on FL3 log mode. Only viable cells detected by reading the scattering indicated as FSC and SSC, were considered for our analysis. The threshold physiological value of ΔΨm was estimated by using cells exposed to 1 μM of the uncoupling agent FCCP as a negative control. Data reported are representative for three sets of independent experiments, each performed at least in triplicate and based on 20.000 events for each group. Data were statistical analyzed by chi-square test. A p < 0,001 was taken as significant.

[2] = test system: VDAC1-SOD1 G93A interaction; assay: In vitro VDAC1-SOD1 G93A binding assay after pre-incubation with HK1 or peptide (western blot, densitometry); set-up: species or system human; conditions: for reduction of SOD1 G93A in VDAC1-bound fraction: 6.25 μM SOD1 G93A, n = 3
Description: It is well known that HKs bind to VDAC1 in physiological conditions. We hypothesized that the available area for interaction with soluble proteins is a limited, exposed portion of the transmembrane pore VDAC1. […] For this reason, we repeated the VDAC1-SOD1 G93A binding assay, adding increasing concentrations of HK1. […] The reduction corresponds to the increase of HK1 in VDAC1-bound fraction, and it is proportional to the HK1 concentrations added in the assay (Fig. 3A).
In order to evaluate the NHK1 ability to interfere with VDAC1-SOD1 G93A interaction, a binding assay was performed. Increasing concentrations of NHK1 were added to immobilized-VDAC1, before SOD1 G93A addition. […] In fact, a 20-fold smaller concentration of peptide was used to obtain a result similar to that obtained by using the whole HK1 in the previous experiment (see Fig. 3A).
Recombinant VDAC1 was immobilized onto Ni-NTA Magnetic Agarose Beads (Qiagen) by exploiting its 6xHis-tag, according with manufacture’s protocol. For each experiment, a large excess of VDAC1 (30 μM) were incubated with 50 μL of beads suspension in Interaction Buffer (IB) (300 mM NaCl, 50 mM NaH2PO4, 20 mM imidazole, pH 8.0) to saturate all sites. Beads were collected using the magnet-based system DynaMag-2 (Life Technologies) and washed twice in Wash Buffer (300 mM NaCl, 50 mM NaH2PO4, 20 mM imidazole, 0.05% Tween-20, pH 6.3) to remove any excess of VDAC1. Beads-immobilized VDAC1 were incubated with 6.25 μM SOD1 WT or G93A, for 1 h at RT, under constant shaking, in 100 μL of IB. The assay was also performed by pre-incubating immobilized-VDAC1 for an extra 1 h with increasing concentration of purified human HK1 (0, 100, 200 μM) or NHK1 peptide (0, 5, 10, 25 μM), before SOD1 G93A addition. Beads were recovered using Dyna-Mag2 system and VDAC1-complexes were eluted from beads using 50 μL of Elution Buffer (300 mM NaCl, 50 mM NaH2PO4, 300 mM imidazole, pH 3.5). Any protein in VDAC1-bound and -unbound fractions was evaluated by western blot. Three independent experiments were performed for each condition tested.

Sequence | effect on single channel VDAC1 conductance ([1]; 1 M KCl) | effect on voltage-dependence of VDAC1, triangular voltage ramps [1] | partial recovery of physiological ΔΨm (NSC34-SOD1G93A cells; NSC34-SOD1G93A expressing scramble peptide) | effect on SOD1 G93A in VDAC1-bound fraction ([2]; scramble control, same assay) | negative membrane potential at which regions of decreased slope already appear (I-V plot) ([1]; 1 M KCl, upon peptide incubation) [mV] | reduction of depolarized mitochondria (NSC34-SOD1G93A cells; NSC34-SOD1G93A expressing peptide, n = 3) [%] | reduction of SOD1 G93A in VDAC1-bound fraction ([2]; 10 μM peptide pre-incubated 1 h) [%] | reduction of SOD1 G93A in VDAC1-bound fraction ([2]; 25 μM peptide pre-incubated 1 h) [%]
FAQLTIALAYY [ScNHK1, scramble peptide (…) synthetized and used as control, reference compound] | No influence on the electrophysiological activity | no difference was found | not | No similar effect |  |  |  | 
IAAQLLAYYFT [NHK1, peptide corresponding to residues 2–12 (N-terminal region) of human HK1 protein (…)] | induced several fast and reversible events of VDAC1 low-conducting closed states | strongly affected the channel voltage-dependence of VDAC1 |  |  | −10 | 20 | 40 | 80
